# PubChem BioAssay AID588712 (The Scripps Research Institute Molecular Screening Center, 2011)
# “And” between values parts separate entries of the source, which are not always exact repeats. Identical values can stand only once. The source made the active and inactive calls. The rule behind the calls is not given here.
# Target: Insulin-degrading enzyme (Homo sapiens) (UniProt P14735)
# Assay: inhibitors of cellular IDE activity, late-stage follow-up, cell-based, fluorescence polarization (AID 588712)
# Insulin-degrading enzyme (Homo sapiens), sequence (P14735 whole entry, looked up): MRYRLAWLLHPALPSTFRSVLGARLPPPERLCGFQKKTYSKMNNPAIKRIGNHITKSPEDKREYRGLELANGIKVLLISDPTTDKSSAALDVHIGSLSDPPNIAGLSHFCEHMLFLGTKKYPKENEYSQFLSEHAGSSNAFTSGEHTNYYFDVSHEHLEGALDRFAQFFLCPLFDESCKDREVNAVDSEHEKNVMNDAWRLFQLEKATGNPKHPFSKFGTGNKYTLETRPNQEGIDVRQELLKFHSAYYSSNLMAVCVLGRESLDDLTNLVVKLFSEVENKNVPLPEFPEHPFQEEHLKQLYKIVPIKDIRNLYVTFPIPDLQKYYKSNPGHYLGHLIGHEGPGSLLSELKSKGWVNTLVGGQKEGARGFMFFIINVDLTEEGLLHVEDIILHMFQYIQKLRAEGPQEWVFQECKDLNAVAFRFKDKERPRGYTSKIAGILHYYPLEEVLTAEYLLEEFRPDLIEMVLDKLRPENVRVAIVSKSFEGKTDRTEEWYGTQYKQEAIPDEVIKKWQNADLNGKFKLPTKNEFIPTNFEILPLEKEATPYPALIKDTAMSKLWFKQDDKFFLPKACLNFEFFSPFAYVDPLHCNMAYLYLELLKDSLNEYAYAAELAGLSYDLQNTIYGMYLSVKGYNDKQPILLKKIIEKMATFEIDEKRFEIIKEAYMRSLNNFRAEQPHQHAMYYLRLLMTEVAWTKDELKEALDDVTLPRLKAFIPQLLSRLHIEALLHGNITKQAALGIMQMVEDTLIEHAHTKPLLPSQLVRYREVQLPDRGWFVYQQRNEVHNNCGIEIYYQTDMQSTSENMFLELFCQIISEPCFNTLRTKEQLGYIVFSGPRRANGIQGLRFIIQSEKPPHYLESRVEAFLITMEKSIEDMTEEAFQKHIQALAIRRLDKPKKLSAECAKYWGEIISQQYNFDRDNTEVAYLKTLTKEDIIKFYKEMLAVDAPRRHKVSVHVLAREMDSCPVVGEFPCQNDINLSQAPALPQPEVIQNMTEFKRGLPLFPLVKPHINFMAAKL
row,Compound,IC50
1,COc1ccc(-c2nc(C(=O)Nc3cccc(C(F)(F)F)c3)cs2)cc1,> 54.7 µM (inactive)
2,Clc1cccc(-c2nnc(SCc3nc4ccccc4[nH]3)n2Cc2ccco2)c1,3.09 µM
3,CCOc1ccc2[nH]c3c(N4CCN(C(=O)c5ccco5)CC4)ncnc3c2c1,inactive
4,COc1cccc(-c2nnc(SCc3nc4ccccc4[nH]3)n2Cc2ccco2)c1,9.38 µM
5,O=C(Nc1cc(C(F)(F)F)cc(C(F)(F)F)c1)c1csc(-c2ccncc2)n1,> 54.7 µM (inactive)
6,Cn1c(=O)c(C(=O)CN2CCCc3ccccc32)c(N)n(Cc2ccccc2)c1=O,> 54.7 µM (inactive)
7,O=C(Nc1ccc2oc(-c3cccnc3)nc2c1)c1ccc2c(c1)OCCO2,> 54.7 µM (inactive)
8,Nc1c(C(=O)Nc2nccs2)sc2nc(-c3cccs3)cc(C(F)(F)F)c12,> 54.7 µM (inactive)
9,Cc1ccc(C)c(N2C(=N)S/C(=C\c3ccc(-c4ccccc4C(=O)O)o3)C2=O)c1,> 54.7 µM (inactive)
10,O=C(C1CC1)N1CCN(c2ccnc3cc(Cl)ccc23)CC1,> 54.7 µM (inactive)
11,O=c1c2ccccc2sn1-c1cc(S(=O)(=O)N2CCOCC2)ccc1N1CCOCC1,2.17 µM
12,COc1cc(/C=C2\SC(=S)N(NC(C)=O)C2=O)ccc1OC(=O)c1ccco1,inactive
13,CCN(CC)c1ccc(/C=C2\C(=N)N3N=C(CC(=O)N4CCOCC4)SC3=NC2=O)cc1,inactive
14,O=C(CSc1nnc(-c2cccc(Cl)c2)n1Cc1ccco1)Nc1ccc2c(c1)OCCO2,> 54.7 µM (inactive)
15,O=C(CSc1nnc(-c2cccc(Cl)c2)n1Cc1ccco1)Nc1ccccc1C(F)(F)F,> 54.7 µM (inactive)
16,Cn1c(SCc2nc3ccccc3[nH]2)nnc1-c1cccc(Cl)c1,> 54.7 µM (inactive)

row,Compound,IC50
1,O=C(CSc1nnc(-c2cccc(Cl)c2)n1Cc1ccco1)c1ccc2ccccc2c1,> 54.7 µM (inactive)
2,COc1ccc(C(=O)N2CCN(C(=O)C3COc4ccccc4O3)CC2)cc1OC (stereo unspecified),> 54.7 µM (inactive)
3,Cc1ccc(NC(=O)CSc2nnc(-c3cccc(Cl)c3)n2Cc2ccco2)c(C)c1,> 54.7 µM (inactive)
4,Cc1ccc(-c2nc(C(=O)Nc3cccc(C(F)(F)F)c3)cs2)cc1,> 54.7 µM (inactive)
5,O=C(Nc1cccc(C(F)(F)F)c1)c1csc(-c2ccccc2)n1,> 54.7 µM (inactive)
6,COc1ccc(NC(=O)CSc2nnc(CN3CCOCC3)n2C)cc1Cl,> 54.7 µM (inactive)
7,O=C(Nc1cccc(C(F)(F)F)c1)c1csc(-c2cccc(C(F)(F)F)c2)n1,> 54.7 µM (inactive)
8,CC(Sc1nnc(-c2cccnc2)n1-c1ccccc1F)C(=O)N1CCCc2ccccc21 (stereo unspecified),> 54.7 µM (inactive)
9,Cc1nc(-c2cccnc2)sc1C(=O)Nc1cccc(C(F)(F)F)c1,> 54.7 µM (inactive)
10,O=C(Nc1cccc(C(F)(F)F)c1)c1csc(Cc2cccc(C(F)(F)F)c2)n1,> 54.7 µM (inactive)
11,Cc1c(CCC(=O)NCCCn2ccnc2)c(=O)oc2cc3oc4c(c3cc12)CCCC4,7.32 µM
12,O=C(CSc1nnc(-c2cccc(Cl)c2)n1Cc1ccco1)Nc1ccc2cn[nH]c2c1,> 54.7 µM (inactive)
13,Clc1cccc(-c2nnc(SCc3nc4ccccc4[nH]3)n2-c2ccccc2)c1,> 54.7 µM (inactive)
14,Cc1cccc(-c2nnc(SCc3nc4ccccc4[nH]3)n2Cc2ccco2)c1,9.21 µM and 8.91 µM
15,O=C(Nc1cccc(C(F)(F)F)c1)c1csc(-c2ccncc2)n1,5.74 µM
